# Laboratory results: EP4711362A1, “LIGAND TARGETING FIBROBLAST ACTIVATION PROTEIN” (Jiangsu Hengrui Pharmaceuticals Co., Ltd., priority 2023, dated 2024)
# Legend:
# FAPα enzyme = target: T1, FAPα enzyme (Homo sapiens, UniProt Q12884); experiment: FAPα enzyme activity test (Z-Gly-Pro-AMC substrate, fluorescence); type: biochemical; settings: for IC50 value against FAPα enzyme, times that of the positive drug FAPI-04: relative to FAPI-04; for inhibition at 0.1 µM: read-out: Inhibition rate 100 nM
# T1 sequence (Q12884 1-760): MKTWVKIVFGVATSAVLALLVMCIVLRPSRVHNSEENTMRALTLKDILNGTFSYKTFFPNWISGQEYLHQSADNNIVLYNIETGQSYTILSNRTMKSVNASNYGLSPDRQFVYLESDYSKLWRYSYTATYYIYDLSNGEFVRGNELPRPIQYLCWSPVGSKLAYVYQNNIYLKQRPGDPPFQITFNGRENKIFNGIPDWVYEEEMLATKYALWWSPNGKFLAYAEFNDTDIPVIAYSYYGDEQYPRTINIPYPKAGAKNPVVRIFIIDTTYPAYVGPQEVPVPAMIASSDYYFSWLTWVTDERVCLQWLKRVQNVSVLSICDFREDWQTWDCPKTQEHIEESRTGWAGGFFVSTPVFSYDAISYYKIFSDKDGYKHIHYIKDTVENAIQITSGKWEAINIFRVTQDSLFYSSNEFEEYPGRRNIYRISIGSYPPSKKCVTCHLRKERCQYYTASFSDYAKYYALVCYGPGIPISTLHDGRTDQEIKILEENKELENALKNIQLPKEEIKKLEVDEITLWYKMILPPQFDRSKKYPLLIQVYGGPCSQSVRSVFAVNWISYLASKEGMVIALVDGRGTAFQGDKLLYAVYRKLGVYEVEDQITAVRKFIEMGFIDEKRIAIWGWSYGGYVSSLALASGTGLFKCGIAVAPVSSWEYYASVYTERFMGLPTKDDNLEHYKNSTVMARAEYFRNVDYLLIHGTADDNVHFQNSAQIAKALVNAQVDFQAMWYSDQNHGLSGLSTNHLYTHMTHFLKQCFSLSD
# Description: The substrate (Z-Gly-Pro-AMC) was diluted with DMSO to prepare a 0.5 mM stock solution. Before each experiment, the 0.5 mM stock solution was diluted with PBS to 50 µM for later use. The FAPα protein was diluted with PBS to 0.5 ng/µl for later use. The test compounds and positive control were diluted with PBS to a concentration of 100 nM or 200 nM for the determination of single-point inhibition rate. […] The test compounds and positive control were subjected to a 5-fold serial dilution with PBS to obtain 8 gradients for later use, with the highest concentration being 10 µM, and the lowest concentration being […]. Test method: 85 µl of the FAPα dilution and 10 µl of the compound dilution were added to a microplate, uniformly mixed and incubated at 37°C for 10 min. Then, 5 µL of 50 µM substrate was added, uniformly mixed and incubated at 37°C for 10 min. The microplate was read on a microplate reader, with an excitation wavelength of 380 nm and an emission wavelength of 465 nm.
# U-87 MG cells = experiment: PET imaging test of radiolabelled compounds in U-87 MG tumour-bearing mice; type: in vivo, BALB/c nude mice
# Description: Cell information: U-87 MG cells (Wuhan Pricella Biotechnology Co., Ltd., Cat. No.: CL-0238, Lot No.: YBMIL8BQHO); Culture conditions: U-87 MG cell specific medium (MEM + 10% FBS + 1% P/S); Number of passages: 6-9;
# Germline: BALB/c nude mice; age: 4-5 weeks old; Body weight: 15-22 g;
# A sufficient quantity of U-87 MG cells was prepared and inoculated into the posterior position of the right forelimb of […] mice in an inoculation volume of 100 µL, containing 50% Matrigel and 4 × 10^6 cells.
# The workbench surface was wiped with 75% medical alcohol and covered with a disposable sterile tablecloth. 0.5 mL insulin syringes, alcohol swabs, cotton swabs and a marking pen were prepared in the injection room. The mice were placed in a mouse restrainer, and the tails of the mice were disinfected with alcohol swabs. 0.2-0.5 mL of the formulated test sample was injected into each mouse via the tail vein, with the time of each injection, the activity of the syringe and the activity of the empty syringe recorded. Tumour-bearing mice were anesthetized with isoflurane, then placed in a prone position on small animal PET beds and fixed. PET static image acquisition was performed for 10 min at 0.5 h, 1 h, 2 h and 4 h after administration; a whole-body CT scan was performed before each static scan to obtain distribution images of the labelled compound throughout the body of tumour-bearing mice. PET images at different time points after administration were obtained for each experimental animal. Major organs were selected and delineated, specifically including: parts such as tumour, muscle, bone, lung, brain, liver and kidney. The radioactive accumulation and clearance of the labelled compounds in tumours and non-target tissues of tumour-bearing mice were observed.
# Using the same experimental method as in Example 2, the ratio of radioactive accumulation of the labelled compound ^18F-FAPI-42 in tumours to non-target tissues in tumour-bearing mice was observed. Table 4.1 Ratios of 18F-FAPI-42 in tumours to non-target organs (tissues)
smiles,measurement,setting,value
"N#C[C@@H]1CC(F)(F)CN1C(=O)CNC(=O)c1ccnc2ccc(NC(=O)[C@H]3CC[C@H](CNC(=O)CN4CCN(CC(=O)O)CCN(CC(=O)O)CC4)CC3)cc12 (relative stereo) [Compound 2, 6-(trans-4-(((2-(4,7-dicarboxymethyl-1,4,7-triazacyclononan-1-yl)acetyl)amino)methyl)cyclohexan-1-yl)carboxamido-4-((S)-2-(2-cyano-4,4-difluoropyrrolidin-1-yl)-2-oxoethyl)carbamoylquinoline]","IC50 value against FAPα enzyme, times that of the positive drug FAPI-04",FAPα enzyme,0.71 times
"N#C[C@@H]1CC(F)(F)CN1C(=O)CNC(=O)c1ccnc2ccc(NC(=O)[C@H]3CC[C@H](CNC(=O)CN4CCN(CC(=O)O)CCN(CC(=O)O)CCN(CC(=O)O)CC4)CC3)cc12 [Compound 1, 6-(trans-4-(((2-(4,7,10-tricarboxymethyl-1,4,7,10-tetraazacyclododecan-1-yl)acetyl)amino)methyl)cyclohexan-1-yl)carboxamido-4-((S)-2-(2-cyano-4,4-difluoropyrrolidin-1-yl)-2-oxoethyl)carbamoylquinoline]",IC50,FAPα enzyme,720 pM
same,inhibition at 0.1 µM,FAPα enzyme; 100 nM compound,84.1%
"N#C[C@@H]1CC(F)(F)CN1C(=O)CNC(=O)c1ccnc2ccc(NC(=O)C3CCC4(CC3)CN(C(=O)CN3CCN(CC(=O)O)CCN(CC(=O)O)CCN(CC(=O)O)CC3)CCO4)cc12 (stereo partly drawn) [Compound 3, 6-((6r,9r)-N-(2-(4,7,10-tricarboxymethyl-1,4,7,10-tetraazacyclododecan-1-yl)acetyl)-1-oxa-4-azaspiro[5.5]undecan-9-yl)carboxamido-4-((S)-2-(2-cyano-4,4-difluoropyrrolidin-1-yl)-2-oxoethyl)carbamoylquinoline]",IC50,FAPα enzyme,570 pM
same,Inhibition rate 100 nM,FAPα enzyme; 100 nM compound,84.70%
N#C[C@@H]1CC(F)(F)CN1C(=O)CNC(=O)c1ccnc2ccc(OCCCN3CCN(C(=O)CN4CCN(CC(=O)O)CCN(CC(=O)O)CC4)CC3)cc12 [FAP-42],"IC50 value against FAPα enzyme, times that of the positive drug FAPI-04",FAPα enzyme,2.27 times
N#C[C@@H]1CC(F)(F)CN1C(=O)CNC(=O)c1ccnc2ccc(OCCCN3CCN(C(=O)CN4CCN(CC(=O)O)CCN(CC(=O)O)CCN(CC(=O)O)CC4)CC3)cc12 [FAPI-04],inhibition at 0.1 µM,FAPα enzyme; 100 nM compound,92.3%
N#C[C@@H]1CC(F)(F)CN1C(=O)CNC(=O)c1ccnc2ccc(OCCCN3CCN(C(=O)CN4CCN5CCN(CC4)CC(=O)[O][Al]([18F])[O]C(=O)C5)CC3)cc12 [^18F-FAPI-42],Ratio Tumour/gallbladder,U-87 MG cells; 0.5 h,1.21
same,Ratio Tumour/intestine,U-87 MG cells; 0.5 h,3.14
same,Ratio Tumour/gallbladder,U-87 MG cells; 1.5 h,1.42
same,Ratio Tumour/intestine,U-87 MG cells; 1.5 h,1.28
same,Ratio Tumour/gallbladder,U-87 MG cells; 3.0 h,3.15
same,Ratio Tumour/intestine,U-87 MG cells; 3.0 h,1.19
N#C[C@@H]1CC(F)(F)CN1C(=O)CNC(=O)c1ccnc2ccc(OCCCN3CCN(C(=O)CN4CCN(CC(=O)[O-])CCN(CC(=O)[O-])CCN(CC(=O)[O-])CC4)CC3)cc12.[68Ga+3] [^68Ga-FAPI-04],Ratio Tumour/brain,U-87 MG cells; 0.5 h,6.36
same,Ratio Tumour/gallbladder,U-87 MG cells; 0.5 h,4.89
same,Ratio Tumour/kidney,U-87 MG cells; 0.5 h,3.35
same,Ratio Tumour/liver,U-87 MG cells; 0.5 h,4.79
same,Ratio Tumour/lung,U-87 MG cells; 0.5 h,4.73
same,Ratio Tumour/muscle,U-87 MG cells; 0.5 h,15.38
same,Ratio Tumour/shoulder joint,U-87 MG cells; 0.5 h,2.62
same,Uptake Brain,U-87 MG cells; 0.5 h after administration,1.16 ± 0.28 % ID/g
same,Uptake Gallbladder,U-87 MG cells; 0.5 h after administration,1.51 ± 0.18 % ID/g
same,Uptake Kidney,U-87 MG cells; 0.5 h after administration,2.20 ± 0.10 % ID/g
same,Uptake Liver,U-87 MG cells; 0.5 h after administration,1.54 ± 0.23 % ID/g
same,Uptake Lung,U-87 MG cells; 0.5 h after administration,1.56 ± 0.45 % ID/g
same,Uptake Muscle,U-87 MG cells; 0.5 h after administration,0.48 ± 0.39 % ID/g
same,Uptake Shoulder joint,U-87 MG cells; 0.5 h after administration,2.82 ± 0.57 % ID/g
same,Uptake Tumour (max),U-87 MG cells; 0.5 h after administration,13.17 ± 3.28 % ID/g
same,Uptake Tumour (mean),U-87 MG cells; 0.5 h after administration,7.38 ± 1.41 % ID/g
same,Ratio Tumour/brain,U-87 MG cells; 1.0 h,9.13
same,Ratio Tumour/gallbladder,U-87 MG cells; 1.0 h,5.46
same,Ratio Tumour/kidney,U-87 MG cells; 1.0 h,3.42
same,Ratio Tumour/liver,U-87 MG cells; 1.0 h,5.76
same,Ratio Tumour/lung,U-87 MG cells; 1.0 h,5.81
same,Ratio Tumour/muscle,U-87 MG cells; 1.0 h,13.89
same,Ratio Tumour/shoulder joint,U-87 MG cells; 1.0 h,2.72
same,Uptake Brain,U-87 MG cells; 1 h after administration,0.70 ± 0.09 % ID/g
same,Uptake Gallbladder,U-87 MG cells; 1 h after administration,1.17 ± 0.36 % ID/g
same,Uptake Kidney,U-87 MG cells; 1 h after administration,1.87 ± 0.20 % ID/g
same,Uptake Liver,U-87 MG cells; 1 h after administration,1.11 ± 0.31 % ID/g
same,Uptake Lung,U-87 MG cells; 1 h after administration,1.10 ± 0.12 % ID/g
same,Uptake Muscle,U-87 MG cells; 1 h after administration,0.46 ± 0.10 % ID/g
same,Uptake Shoulder joint,U-87 MG cells; 1 h after administration,2.35 ± 0.44 % ID/g
same,Uptake Tumour (max),U-87 MG cells; 1 h after administration,10.98 ± 2.02 % ID/g
same,Uptake Tumour (mean),U-87 MG cells; 1 h after administration,6.39 ± 0.92 % ID/g
same,Ratio Tumour/brain,U-87 MG cells; 2.0 h,8.95
same,Ratio Tumour/gallbladder,U-87 MG cells; 2.0 h,5.34
same,Ratio Tumour/kidney,U-87 MG cells; 2.0 h,3.42
same,Ratio Tumour/liver,U-87 MG cells; 2.0 h,5.71
same,Ratio Tumour/lung,U-87 MG cells; 2.0 h,5.71
same,Ratio Tumour/muscle,U-87 MG cells; 2.0 h,10.21
same,Ratio Tumour/shoulder joint,U-87 MG cells; 2.0 h,2.77
same,Uptake Brain,U-87 MG cells; 2 h after administration,0.65 ± 0.21 % ID/g
same,Uptake Gallbladder,U-87 MG cells; 2 h after administration,1.09 ± 0.36 % ID/g
same,Uptake Kidney,U-87 MG cells; 2 h after administration,1.70 ± 0.17 % ID/g
same,Uptake Liver,U-87 MG cells; 2 h after administration,1.02 ± 0.23 % ID/g
same,Uptake Lung,U-87 MG cells; 2 h after administration,1.02 ± 0.21 % ID/g
same,Uptake Muscle,U-87 MG cells; 2 h after administration,0.57 ± 0.27 % ID/g
same,Uptake Shoulder joint,U-87 MG cells; 2 h after administration,2.10 ± 0.36 % ID/g
same,Uptake Tumour (max),U-87 MG cells; 2 h after administration,10.38 ± 2.02 % ID/g
same,Uptake Tumour (mean),U-87 MG cells; 2 h after administration,5.82 ± 1.01 % ID/g
same,Ratio Tumour/brain,U-87 MG cells; 4.0 h,8.20
same,Ratio Tumour/gallbladder,U-87 MG cells; 4.0 h,4.75
same,Ratio Tumour/kidney,U-87 MG cells; 4.0 h,3.34
same,Ratio Tumour/liver,U-87 MG cells; 4.0 h,4.47
same,Ratio Tumour/lung,U-87 MG cells; 4.0 h,5.43
same,Ratio Tumour/muscle,U-87 MG cells; 4.0 h,10.74
same,Ratio Tumour/shoulder joint,U-87 MG cells; 4.0 h,2.59
same,Uptake Brain,U-87 MG cells; 4 h after administration,0.55 ± 0.17 % ID/g
same,Uptake Gallbladder,U-87 MG cells; 4 h after administration,0.95 ± 0.46 % ID/g
same,Uptake Kidney,U-87 MG cells; 4 h after administration,1.35 ± 0.23 % ID/g
same,Uptake Liver,U-87 MG cells; 4 h after administration,1.01 ± 0.29 % ID/g
same,Uptake Lung,U-87 MG cells; 4 h after administration,0.83 ± 0.20 % ID/g
same,Uptake Muscle,U-87 MG cells; 4 h after administration,0.42 ± 0.10 % ID/g
same,Uptake Shoulder joint,U-87 MG cells; 4 h after administration,1.74 ± 0.42 % ID/g
same,Uptake Tumour (max),U-87 MG cells; 4 h after administration,12.40 ± 0.85 % ID/g
same,Uptake Tumour (mean),U-87 MG cells; 4 h after administration,4.51 ± 0.28 % ID/g
